Measurements taken from patent US6372183B1 (priority 1991, dated 2002).
Where two headings read alike, the source gives them in different places.

Columns and labels:
[1] = system: nicotinic acetylcholine receptors (NAChR)
Experimental: The cells were plated and loaded with the fluorescent dye Fluo-3 and the assays were carried out substantially as described in the modified method of Example 3A except that the nicotinic receptors of the cells were activated.

[2] = system: muscarinic acetylcholine receptors (MAChRs)
[3] = system: voltage-dependent calcium channels
Experimental: (§1) SHSY5Y cells, induced for six days with 10 μM retinoic acid (Sigma), and IMR32 cells, induced for ten days with 1 mM dibutyryl cAMP (dbcAMP) and 2.5 μM bromodeoxyuridine (BrdU) (both from Boehringer-Mannheim, Indianapolis, IN) were treated with various calcium channel interactive drugs before kCl depolarization and measurement of fluorescence.

[4] = biological target: human neuronal calcium channel α1D, α2 and β subunits (Homo sapiens, UniProt Q01668); conditions: 13old cells; 50 mM KCl
Experimental: The assays were conducted using the fully automated version of the assay, as described for analysis of calcium channels in positive control IMR32 and SHSY5Y cells. Fluorescence was measured prior to addition of KCl to the cells to record pre-reagent fluorescence, i.e., noise, fluorescence. Signal fluorescence is the maximal fluorescence recorded after addition of KCl to the cells.
The automated assays were performed as described for analysis of calcium channel activity of IMR32 and SHSY5Y cells. For each dose-dependence assay, different wells of the microtiter plate received different concentrations of the agonist or antagonist, the background fluorescence was measured, and. […] Repeated fluorescence measurements were made before and after KCl addition and the values were recorded. A total of five fluorescence readings were taken before KCl addition. […] The plate was then automatically repositioned at the fluorescence measuring position (a delay of two seconds was measured between reagent addition and the first fluorescence measurement after reagent addition) and 125 fluorescence measurements were taken and values were recorded. […]
Dose-response curves were generated from the fluorescence data. In constructing these curves, the fluorescence value recorded in the presence of each concentration of compound was plotted as the percent maximum fluorescence vs. concentration. […]

[5] = system: voltage-dependent calcium channels; remark: listed apart in the source
Experimental: as §1

Chain of human neuronal calcium channel α1D, α2 and β subunits (Q01668 whole entry): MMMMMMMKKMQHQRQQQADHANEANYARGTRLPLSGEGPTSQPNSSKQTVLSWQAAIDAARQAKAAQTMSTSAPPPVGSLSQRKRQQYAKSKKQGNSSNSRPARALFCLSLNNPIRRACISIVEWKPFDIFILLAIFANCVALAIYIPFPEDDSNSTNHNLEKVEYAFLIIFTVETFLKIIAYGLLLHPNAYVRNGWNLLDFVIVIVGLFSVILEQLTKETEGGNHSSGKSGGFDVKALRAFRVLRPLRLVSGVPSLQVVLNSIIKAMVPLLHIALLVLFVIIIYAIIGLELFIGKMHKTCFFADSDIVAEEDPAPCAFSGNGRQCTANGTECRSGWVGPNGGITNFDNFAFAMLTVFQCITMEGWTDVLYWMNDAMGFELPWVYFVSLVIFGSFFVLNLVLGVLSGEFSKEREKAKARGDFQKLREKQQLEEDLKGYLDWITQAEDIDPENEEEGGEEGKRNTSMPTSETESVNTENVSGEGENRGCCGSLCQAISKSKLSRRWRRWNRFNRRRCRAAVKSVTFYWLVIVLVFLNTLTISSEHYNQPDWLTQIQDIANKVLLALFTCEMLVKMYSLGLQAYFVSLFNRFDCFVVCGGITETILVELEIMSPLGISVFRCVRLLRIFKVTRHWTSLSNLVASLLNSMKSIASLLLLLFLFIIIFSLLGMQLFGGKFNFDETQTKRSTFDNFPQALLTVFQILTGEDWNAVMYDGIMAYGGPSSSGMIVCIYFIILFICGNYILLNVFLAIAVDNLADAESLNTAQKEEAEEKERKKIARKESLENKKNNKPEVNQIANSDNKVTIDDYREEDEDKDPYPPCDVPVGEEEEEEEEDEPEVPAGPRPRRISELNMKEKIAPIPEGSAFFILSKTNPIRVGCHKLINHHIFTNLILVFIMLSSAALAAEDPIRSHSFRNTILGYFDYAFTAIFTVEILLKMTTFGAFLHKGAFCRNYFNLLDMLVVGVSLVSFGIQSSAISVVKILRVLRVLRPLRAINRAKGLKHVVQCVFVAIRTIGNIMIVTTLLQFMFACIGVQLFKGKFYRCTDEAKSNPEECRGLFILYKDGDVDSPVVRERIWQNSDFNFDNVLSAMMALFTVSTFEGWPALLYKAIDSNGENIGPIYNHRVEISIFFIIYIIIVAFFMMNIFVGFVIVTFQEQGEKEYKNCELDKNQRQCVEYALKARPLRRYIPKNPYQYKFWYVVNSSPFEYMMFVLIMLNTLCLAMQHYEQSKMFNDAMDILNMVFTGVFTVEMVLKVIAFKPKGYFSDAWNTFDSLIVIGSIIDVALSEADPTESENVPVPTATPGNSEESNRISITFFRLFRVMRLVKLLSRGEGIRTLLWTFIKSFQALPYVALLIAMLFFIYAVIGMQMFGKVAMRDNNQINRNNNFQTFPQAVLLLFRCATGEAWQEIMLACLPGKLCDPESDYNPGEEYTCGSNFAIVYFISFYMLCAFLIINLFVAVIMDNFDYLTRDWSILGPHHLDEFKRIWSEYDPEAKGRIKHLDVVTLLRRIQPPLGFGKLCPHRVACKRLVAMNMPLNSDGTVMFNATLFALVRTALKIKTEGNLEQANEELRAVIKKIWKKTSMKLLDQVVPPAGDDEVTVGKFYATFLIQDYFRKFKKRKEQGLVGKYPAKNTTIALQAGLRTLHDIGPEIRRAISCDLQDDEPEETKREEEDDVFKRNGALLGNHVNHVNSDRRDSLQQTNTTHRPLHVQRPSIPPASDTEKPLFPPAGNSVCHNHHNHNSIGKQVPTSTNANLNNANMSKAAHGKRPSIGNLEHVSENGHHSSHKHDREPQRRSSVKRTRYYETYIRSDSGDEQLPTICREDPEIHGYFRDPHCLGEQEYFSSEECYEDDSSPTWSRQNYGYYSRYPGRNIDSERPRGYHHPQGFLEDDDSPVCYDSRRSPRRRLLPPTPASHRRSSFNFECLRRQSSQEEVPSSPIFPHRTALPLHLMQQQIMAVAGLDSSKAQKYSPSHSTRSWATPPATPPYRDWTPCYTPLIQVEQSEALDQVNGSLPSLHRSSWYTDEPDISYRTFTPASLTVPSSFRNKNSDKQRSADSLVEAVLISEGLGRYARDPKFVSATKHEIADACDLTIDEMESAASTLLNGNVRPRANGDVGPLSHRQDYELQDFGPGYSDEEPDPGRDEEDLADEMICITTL

C[N+](C)(C)CCCCCC[N+](C)(C)C [hexamethonium]
Fluorescence S/N ratio [1]: 1.0

CNC1(C)C2CCC(C2)C1(C)C (stereo not shown) [mecamylamine]
Fluorescence S/N ratio [1]: 1.0

CN1CCCC1c1cccnc1 (stereo not shown) [nicotine]
Fluorescence S/N ratio ([1]; IMR32 cells, 200 μM agonist alone, Equation 2): 2.3

CN1[C@@H]2C[C@@H](OC(=O)[C@H](CO)c3ccccc3)C[C@H]1[C@@H]1O[C@@H]12 [scopolamine]
Fluorescence S/N ratio [2]: 1.0

Bay K 8644 [BayK 8644]
Fluorescence Signal to Noise Ratio ([3]; SHSY5Y, 50 mM KCl and 1 μM compound): 2.7 | Concentration at which potentiation of the fluorescence response to KCl was maximal [4]: 100 nM | Fluorescence Signal to Noise Ratio ([5]; IMR32, 50 mM KCl and 1 μM compound): 2.5

D-tubocurarine [DTC]
Fluorescence S/N ratio [1]: 1.0

KCl [KC1]
Fluorescence Signal to Noise Ratio ([3]; SHSY5Y (retinoic acid induced), 50 mM KCl alone): 1.9 | Fluorescence Signal to Noise Ratio ([5]; IMR32 (dbcAMP/BrdU induced), 50 mM KCl alone): 2.3

cadmium
Fluorescence Signal to Noise Ratio ([3]; SHSY5Y, 50 mM KCl and 200 μM compound): 1.0 | Fluorescence Signal to Noise Ratio ([5]; IMR32, 50 mM KCl and 200 μM compound): 1.0

omega-CgTx
Inhibition of the KCl-induced fluorescence increase (in words) [4]: did not completely inhibit
